Assay results published in patent US7220822B2, “CD28 mimetics for blocking T cell mediated immune reactions” (The Ohio State University, priority 2000, dated 2007).
Square brackets hold non-standard residues; d marks the D form. Peptide text beside a SMILES is read from it.

Key:
B10.PL mice with EAE = experiment: EAE in B10.PL mice immunized with GP-MBP in CFA, clinical score; assay type: in vivo, mouse; conditions: for clinical course (in words): single i.v. 500 μg on day 14 post-immunization, observed 26 days
Experimental: Female B10.PL mice (6–8 wk old) were obtained from The Jackson laboratory (Bar Harbor, Me.) and housed at the Ohio State University, (Columbus, Ohio).
Mice were injected subcutaneously over four sites on the flank with an emulsion containing 200 μg of guinea-pig-MBP in CFA containing 200 μg heat killed Mycobacterium tuberculosis, Jamaica strain. Pertussis toxin (List Biological, Campbell, Calif.) at 150 ng in 0.2 ml of PBS was given intraperitoneally at the time of immunization and 48 hours later. Animals were observed daily for clinical signs and scored as follows: 1, limp tail or waddling gait with tail tonicity; 2, waddling gait with limp tail (ataxia); 2.5 ataxia with partial paralysis of one limb, 3, partial hind-limb paralysis, 3.5 full paralysis of one limb with partial paralysis of the second limb, 4, full paralysis of two limbs, 4.5 moribund and 5, death. All mice immunized with MBP (200 μg) in CFA developed clinical disease varying between ataxia and complete hind limb paralysis by day 14 post-immunization. They were then distributed randomly into six groups with mean clinical score of each group approximately the same.
Groups of mice were left untreated or injected intravenously with 500 μg of EL CD28 or RI CD28 peptide mimetics, or LCD28, RLCD28 and DCD28 peptides. The mean clinical score of untreated mice continued to increase reaching a maximum of 3.4 on day 20. Similarly the disease continued to progress in mice treated with LCD28, RLCD28 and DCD28, reaching mean maximal clinical score of 3.8 (day 18), 3.4 (day 16 ) and 3.7 (day 16) respectively.
The biological activity of synthetic CD28 peptide analogues during antigen priming in vivo in EAE was then shown. B10.PL mice immunized with GP-MBP (200 μg) in CFA were either left untreated or injected intravenously 500 μg of EL CD28 or RI CD28 peptide mimetics or LCD28, RLCD28 and DCD28 peptides on the day of immunization. The vehicle treated mice and mice treated with: LCD28, RL CD28 and D CD28 peptide had maximum disease incidence of 100%, 100%, 91.5% and 91.5% and maximum mean cumulative score per day of 1.9, 1.8, 1.7 and 2 respectively. […] The effect of RI CD28 peptide injection lasted for the duration of observation (37 days) in one experiment.

[1] = system: CD4+ splenocytes from Vα4/Vβ8.2 TCR transgenic mice; assay type: cell-based, mouse; conditions: 72 h
Experimental: The in vitro effect of varying concentration of the CD 28 peptide mimetics on CD4+ lymph node cells and spleen cells from transgenic mice bearing the Vα 4 Vβ8.2 TCR specific for MBP Ac 1-11 was determined.
CD4+ T cells were purified from pooled peripheral lymph nodes (inguinal, axillary, brachial, cervical, popliteal), and mesenteric lymph nodes and spleen of 6–8 wk old Vα4/Vβ8.2 TCR transgenic mice by positive selection. Single cell suspensions were prepared by lympholyte M gradient, washed, counted and incubated with magnetic bead conjugated anti-mouse CD4 (L3T4) (Miltenyi Biotech Corporation) followed by positive selection using magnetic selection columns. Purity of the CD4^+ cells was greater than 90% as assessed by staining with FITC labeled anti-mouseVβ8.2 mAb (Pharmingen). During the selection process, T cells maintain a naïve phenotype with no evidence for T cell activation as measured by proliferation in culture. Purified CD4+ T-cells (5×10^4 cells/well) were cultured together with wild type splenocytes from B10.PL mice as APC's (10^5 cells/well) in RPMI 1640 containing 10% FCS, 25 mM HEPES, 2 mM L-glutamine, 50 U/ml penicillin, 50 μg/ml streptomycin, and 5×10–5 M 2-ME in round-bottom 96-well plates and MBP (40 μg/ml) or MBP NAc1-11 (10 μg/ml) or media only in the presence or absence of synthetic CD28 peptide analogues at different concentrations in triplicate wells for 72 h, including a final 18-h pulse with [^3H] thymidine. Cultures were harvested onto glass-fiber mats using a Skatron harvester (Skatron, Sterling, Va.) and were counted by liquid scintillation on LKB Betaplate (LKB, Rockville, Md.). The means of the triplicate were determined and the results are expressed as delta cpm (mean counts per minute of cultures with Ag-mean counts per minute of cultures with medium alone)±SD.

[2] = system: CD4+ lymphocytes of immunized mice; experiment: Apoptosis of CD4+ T cells in peptide-treated EAE mice (enzymatic labeling of nicked ends); assay type: in vivo, mouse; conditions: mice treated on the day of immunization
Experimental: This was done by quantifying the DNA strand breaks in CD4+ lymphocytes detected by enzymatic labeling of nicked ends. Cells incubated in DNAse served as positive control.

[3] = single i.v. 500 μg on the day of immunization

For CC[C@H](C)[C@H](NC(=O)[C@@H](NC(=O)CNC(=O)[C@H](CC(N)=O)NC(=O)[C@H](CO)NC(=O)[C@H](CCCNC(=N)N)NC(=O)[C@H](CCC(=O)O)NC(=O)[C@H](CC(N)=O)NC(=O)[C@H](CC(=O)O)NC(=O)[C@H](CC(C)C)NC(=O)[C@H](Cc1ccc(O)cc1)NC(=O)[C@@H]1CCCN1C(=O)[C@@H]1CCCN1C(=O)[C@@H]1CCCN1C(=O)[C@H](Cc1ccc(O)cc1)NC(=O)[C@H](CCSC)NC(=O)[C@H](Cc1ccccc1)NC(=O)[C@H](CCC(=O)O)NC(=O)[C@@H](NC(=O)[C@H](CCCCN)NC(C)=O)[C@@H](C)CC)[C@@H](C)O)C(N)=O [EL CD28] (Ac-KIEFMYPPPYLDNERSNGTI-NH2), the “clinical course (in words)” value (B10.PL mice with EAE) was “continued to show clinical improvement”, the maximum disease incidence (B10.PL mice with EAE; [3]) was 70% and the “maximum mean cumulative score per day” value (B10.PL mice with EAE; [3]) was 1.1.

In the case of CC[C@@H](C)[C@@H](NC(C)=O)C(=O)N[C@@H](C(=O)NCC(=O)N[C@H](CC(N)=O)C(=O)N[C@H](CO)C(=O)N[C@H](CCCNC(=N)N)C(=O)N[C@H](CCC(=O)O)C(=O)N[C@H](CC(N)=O)C(=O)N[C@H](CC(=O)O)C(=O)N[C@H](CC(C)C)C(=O)N[C@H](Cc1ccc(O)cc1)C(=O)N1CCC[C@@H]1C(=O)N1CCC[C@@H]1C(=O)N1CCC[C@@H]1C(=O)N[C@H](Cc1ccc(O)cc1)C(=O)N[C@H](CCSC)C(=O)N[C@H](Cc1ccccc1)C(=O)N[C@H](CCC(=O)O)C(=O)N[C@@H](C(=O)N[C@H](CCCCN)C(N)=O)[C@H](C)CC)[C@H](C)O [RI CD28] (Ac-[dI][dT]G[dN][dS][dR][dE][dN][dD][dL][dY][dP][dP][dP][dY][dM][dF][dE][dI][dK]-NH2), the “maximum inhibition of proliferative response” value [1] was 42%, the “clinical course (in words)” value (B10.PL mice with EAE) was “continued to show clinical improvement” and the maximum disease incidence (B10.PL mice with EAE; [3]) was 60%. For the same compound, the “maximum mean cumulative score per day” value (B10.PL mice with EAE; [3]) was 0.74, the “duration of effect of injection” value (B10.PL mice with EAE; single i.v. 500 μg on the day of immunization, one experiment, duration of observation) was 37 days and the “percentage of apoptotic CD4+ T cells” value [2] was 16%.
